Reference: patent publication US20180362921A1, “EXTRACTION AND PROCESS FOR ACTIVE THYLAKOID MEMBRANES” (GROUPE SANTÉ DEVONIAN INC., priority 2015, published 2018)
Read-outs that look alike come from different tables or passages of the source.

Biological target: T1, PSII reaction centers of thylakoid extract (Spinacia oleracea, UniProt P69560)
T1 construct: both lyophilized thylakoid extracts were resuspended in: Tris-HCl 50 mM pH 7.5; sorbitol 330 mM; from tissue; host or cells: plant thylakoid membrane extract (lyophilized, rehydrated)
Assay: Inhibition of Fv/Fm (photosynthetic efficiency) of thylakoid extract by atrazine
Format: biochemical, Spinacia oleracea L.
Description: Each re-suspended extract was dark-incubated for 15 min with the appropriate atrazine concentration for 15 minutes.
Absorbed light was measured with a FMS1 Hansatech Instrument (Schreiber et al., 1986; lab based modulated fluorescence); under excitation light beam at 470 nm. In dark adapted condition, the following fluorescence parameters can be obtained or calculated: • Fo: minimal fluorescence when PSII reaction centers are in the fully oxidized state. It is obtained at the beginning of fluorescence measurement when only the modulating beam is illuminated. • Fm: obtained with an intense saturating pulse (2 000 μmol photons m^2/s) allowing maxi mum PSII fluorescence emission. • Fv: variable fluorescence is obtained by the difference between Fm and Fo and corresponds to maximum capacity for photochemical energy quenching.
Fv/Fm: this ratio is proportional to quantum efficiency of PSII reaction centers (Butker 1977, 1978) and represents a correlation between the chlorophyll fluorescence and the photochemical reactions (for instance oxygen evolution).
Any molecule affecting the photosystems will modify either Fo or Fm which modification necessarily disrupts (increases or decreases) the photosynthetic efficiency. […]

CCNc1nc(Cl)nc(NC(C)C)n1 [atrazine]
IC50 (IC50 (atrazine concentration inhibiting 50% of the efficiency parameter), extract after 7 days at 20° C., 5 μg/mL chlorophyll, 15 min dark incubation): 116 nM | IC50 (several batches of thylakoid extract, 95% confidence, FIG. 4, read-out: IC50 of an accepted lot (within 2σ of the mean IC50)): 76.5 to 218 nM
